Drawing on ChEMBL document CHEMBL1909046, “DrugMatrix in vitro pharmacology data”, this text covers IC50 and Ki for 21 compounds.

Test [1] is described as follows: DRUGMATRIX: Calcium Channel Type L, Dihydropyridine radioligand binding (ligand: [3H] Nitrendipine). In kind it is cell membranes, Rattus norvegicus, Wistar, Cerebral cortex, Membrane. To be noted: Not Active = under 50% inhibition at 10 µM.
The next test has as its target Estrogen receptor beta (Homo sapiens, UniProt Q92731). To be noted: sf9. Note: in other assays of this panel Not Active means under 50% inhibition at 10 µM.
The target in test [2] is T1, Alpha-1B adrenergic receptor (Rattus norvegicus, UniProt P15823).
T1 sequence (P15823 whole entry): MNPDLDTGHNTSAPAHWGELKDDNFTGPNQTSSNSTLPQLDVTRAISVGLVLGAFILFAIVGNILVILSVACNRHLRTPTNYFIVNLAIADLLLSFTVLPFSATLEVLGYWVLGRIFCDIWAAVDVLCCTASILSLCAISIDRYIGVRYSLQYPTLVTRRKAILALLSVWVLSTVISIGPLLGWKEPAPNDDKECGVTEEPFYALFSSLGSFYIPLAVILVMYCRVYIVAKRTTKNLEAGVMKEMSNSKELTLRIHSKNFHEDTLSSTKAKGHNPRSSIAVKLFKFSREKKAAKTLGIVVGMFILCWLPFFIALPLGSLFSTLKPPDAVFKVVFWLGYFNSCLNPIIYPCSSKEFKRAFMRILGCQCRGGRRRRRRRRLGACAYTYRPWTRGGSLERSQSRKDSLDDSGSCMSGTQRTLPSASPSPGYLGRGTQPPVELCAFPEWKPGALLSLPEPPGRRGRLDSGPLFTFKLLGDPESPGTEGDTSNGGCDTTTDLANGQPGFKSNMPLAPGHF
The experiment in a line: DRUGMATRIX: Alpha-1B adrenergic receptor radioligand binding (ligand: prazosin). In kind it is cell membranes, Wistar, Liver, Membrane. To be noted: Not Active = under 50% inhibition at 10 µM.

In test [3] the target is T2, Neuropeptide Y receptor type 2 (Homo sapiens, UniProt P49146). Note: in other assays of this panel Not Active means under 50% inhibition at 10 µM.
T2 sequence (P49146 whole entry): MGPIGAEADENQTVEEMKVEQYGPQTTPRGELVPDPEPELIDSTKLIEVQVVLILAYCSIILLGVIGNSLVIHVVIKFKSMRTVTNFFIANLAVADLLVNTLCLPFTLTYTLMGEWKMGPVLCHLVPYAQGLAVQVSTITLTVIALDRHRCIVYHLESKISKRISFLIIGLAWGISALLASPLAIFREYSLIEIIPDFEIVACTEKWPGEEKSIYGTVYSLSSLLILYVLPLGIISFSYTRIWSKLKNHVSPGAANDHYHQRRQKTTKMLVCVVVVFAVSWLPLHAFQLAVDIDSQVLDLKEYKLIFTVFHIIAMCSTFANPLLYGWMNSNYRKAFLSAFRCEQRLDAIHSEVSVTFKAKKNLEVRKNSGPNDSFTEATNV
In kind it is cell membranes, Membrane. As to conditions: kan-ts.

The next test addresses T3, Cathepsin G (Homo sapiens, UniProt P08311).
T3 sequence (P08311 whole entry): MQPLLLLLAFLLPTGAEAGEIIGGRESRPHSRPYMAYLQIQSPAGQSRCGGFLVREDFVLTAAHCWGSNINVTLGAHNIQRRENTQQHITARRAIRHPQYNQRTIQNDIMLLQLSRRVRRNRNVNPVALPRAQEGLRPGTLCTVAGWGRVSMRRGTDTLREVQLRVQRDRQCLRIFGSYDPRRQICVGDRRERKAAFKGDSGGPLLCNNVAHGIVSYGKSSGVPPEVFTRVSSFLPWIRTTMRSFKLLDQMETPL
In kind it is tissue-based. To be noted: neutrophil.

Another test deals with D(3) dopamine receptor (Homo sapiens, UniProt P35462). As to the kind of experiment: DRUGMATRIX: Dopamine D3 radioligand binding (ligand: [3H] Spiperone). In kind it is cell membranes, CHO, Membrane.
A further test concerns the target Mu-type opioid receptor (Homo sapiens, UniProt P35372). The experiment in a line: DRUGMATRIX: Opiate mu (OP3, MOP) radioligand binding (ligand: [3H] Diprenorphine). Type of test: cell membranes, CHO-K1, Membrane. To be noted: Not Active = under 50% inhibition at 10 µM.

Estrogen receptor beta, sequence (Q92731 whole entry): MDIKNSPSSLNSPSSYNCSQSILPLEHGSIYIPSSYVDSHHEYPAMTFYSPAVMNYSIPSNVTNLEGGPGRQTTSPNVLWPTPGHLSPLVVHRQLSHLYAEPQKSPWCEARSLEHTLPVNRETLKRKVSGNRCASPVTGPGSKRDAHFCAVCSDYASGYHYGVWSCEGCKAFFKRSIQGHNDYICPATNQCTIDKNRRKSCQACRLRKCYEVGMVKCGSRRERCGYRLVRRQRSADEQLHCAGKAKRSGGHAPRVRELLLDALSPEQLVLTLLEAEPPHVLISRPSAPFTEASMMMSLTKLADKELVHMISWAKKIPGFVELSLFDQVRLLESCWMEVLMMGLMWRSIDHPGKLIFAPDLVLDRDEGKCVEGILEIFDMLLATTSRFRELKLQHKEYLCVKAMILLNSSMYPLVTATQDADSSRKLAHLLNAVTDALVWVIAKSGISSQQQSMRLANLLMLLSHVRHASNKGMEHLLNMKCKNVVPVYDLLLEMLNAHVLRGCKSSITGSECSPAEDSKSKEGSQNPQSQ
Mu-type opioid receptor, sequence (P35372 whole entry): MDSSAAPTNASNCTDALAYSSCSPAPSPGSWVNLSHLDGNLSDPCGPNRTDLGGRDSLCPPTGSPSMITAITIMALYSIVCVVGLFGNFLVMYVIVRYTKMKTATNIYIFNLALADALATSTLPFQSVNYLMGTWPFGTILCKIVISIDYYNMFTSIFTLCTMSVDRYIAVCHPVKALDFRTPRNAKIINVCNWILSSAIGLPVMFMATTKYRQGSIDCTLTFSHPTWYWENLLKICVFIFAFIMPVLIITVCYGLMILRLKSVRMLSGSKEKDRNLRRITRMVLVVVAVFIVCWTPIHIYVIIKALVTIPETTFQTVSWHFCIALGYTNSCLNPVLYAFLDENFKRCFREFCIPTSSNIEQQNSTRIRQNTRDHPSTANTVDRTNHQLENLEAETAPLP
D(3) dopamine receptor, sequence (P35462 whole entry): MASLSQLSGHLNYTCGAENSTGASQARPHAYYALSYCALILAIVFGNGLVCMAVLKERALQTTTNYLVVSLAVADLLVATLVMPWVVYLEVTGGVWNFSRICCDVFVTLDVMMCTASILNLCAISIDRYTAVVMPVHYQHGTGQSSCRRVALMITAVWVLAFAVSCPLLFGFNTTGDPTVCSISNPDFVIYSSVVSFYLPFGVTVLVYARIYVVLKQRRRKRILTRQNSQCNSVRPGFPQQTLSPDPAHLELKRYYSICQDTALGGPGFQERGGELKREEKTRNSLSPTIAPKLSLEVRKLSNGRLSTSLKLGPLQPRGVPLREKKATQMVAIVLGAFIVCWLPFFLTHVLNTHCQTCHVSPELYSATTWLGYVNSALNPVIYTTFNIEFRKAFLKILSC

On to `CC(C)(C)NC(=O)[C@@H]1C[C@@H]2CCCC[C@@H]2CN1C[C@@H](O)[C@H](Cc1ccccc1)NC(=O)[C@H](CC(N)=O)NC(=O)c1ccc2ccccc2n1`, for which the concentration for half-maximal inhibition (IC50) entry (in test [1]; against Estrogen receptor beta; in test [2]; in test [3]; against Cathepsin G) was “Not Active” each time. In addition, the inhibitory constant (Ki) entry in test [1] is listed as “Not Active”.

`CC(=O)[C@@]1(O)CC[C@H]2[C@@H]3C[C@H](C)C4=CC(=O)CC[C@]4(C)[C@H]3CC[C@@]21C`: the IC50 entry (at D(3) dopamine receptor (cho); in test [1]; at Estrogen receptor beta; in test [2]; in test [3]; on Cathepsin G) was “Not Active” throughout. For the same compound, the 50% inhibitory concentration (IC50) entry at Mu-type opioid receptor (cho-k1) is recorded as “Not Active”. For the same compound, the Ki result in test [1] is listed as “Not Active”.

Consider `N[C@@H](Cc1ccc(N(CCCl)CCCl)cc1)C(=O)O`, for which the concentration for half-maximal inhibition (IC50) result (on D(3) dopamine receptor (cho); in test [1]; against Estrogen receptor beta; in test [2]; in test [3]; on Cathepsin G) was “Not Active” throughout. Further, the inhibition constant (Ki) result in test [1] is recorded as “Not Active”.

Take `CCCCc1oc2ccccc2c1C(=O)c1cc(I)c(OCCN(CC)CC)c(I)c1` [AMIODARONE]: the half-maximal inhibitory concentration (IC50) entry (at Estrogen receptor beta; in test [3]; at Cathepsin G) was “Not Active” in each case.

On to `OCCN(CCO)c1nc(N2CCCCC2)c2nc(N(CCO)CCO)nc(N3CCCCC3)c2n1` [DIPYRIDAMOLE], for which the concentration for half-maximal inhibition (IC50) entry (on D(3) dopamine receptor (cho); in test [1]; on Estrogen receptor beta; in test [2]; in test [3]; against Cathepsin G) was “Not Active” in each case. The 50% inhibitory concentration (IC50) entry at Mu-type opioid receptor (cho-k1) was “Not Active”. The Ki entry in test [1] was “Not Active”.

Take `Cc1oncc1C(=O)Nc1ccc(C(F)(F)F)cc1` [LEFLUNOMIDE]: the IC50 result (at D(3) dopamine receptor (cho); in test [1]; against Estrogen receptor beta; in test [2]; in test [3]; against Cathepsin G) was “Not Active” each time. For the same compound, at Mu-type opioid receptor (cho-k1), the half-inhibitory concentration (IC50) result is on record as “Not Active”. Moreover, the Ki result in test [1] was “Not Active”.

Turning to `c1ccc([C@H]2CN3CCSC3=N2)cc1` [LEVAMISOLE], the IC50 entry (at D(3) dopamine receptor (cho); in test [1]; against Estrogen receptor beta; in test [2]; in test [3]; on Cathepsin G) was “Not Active” each time. Besides, on Mu-type opioid receptor (cho-k1), the IC50 entry is given as “Not Active”. Also, in test [1], the inhibition constant (Ki) entry is recorded as “Not Active”.

Take `N[C@@H](Cc1ccc(O)c(O)c1)C(=O)O` [LEVODOPA]: the 50% inhibitory concentration (IC50) entry (at D(3) dopamine receptor (cho); in test [1]; against Estrogen receptor beta; in test [2]; in test [3]; at Cathepsin G) was “Not Active” in each case. The IC50 entry at Mu-type opioid receptor (cho-k1) is listed as “Not Active”. Besides, the Ki entry in test [1] is listed as “Not Active”.

For `N[C@@H](Cc1cc(I)c(Oc2ccc(O)c(I)c2)c(I)c1)C(=O)O` [LIOTHYRONINE], the IC50 entry (at D(3) dopamine receptor (cho); in test [2]; in test [3]; against Cathepsin G; on Mu-type opioid receptor (cho-k1)) was “Not Active” throughout.

Regarding `O=NN(CCCl)C(=O)NC1CCCCC1` [LOMUSTINE], the IC50 entry (at D(3) dopamine receptor (cho); in test [1]; against Estrogen receptor beta; in test [2]; in test [3]; against Cathepsin G) was “Not Active” throughout. The IC50 entry at Mu-type opioid receptor (cho-k1) was “Not Active”. In addition, the Ki result in test [1] is reported as “Not Active”.

With `CCOC(=O)N1CCC(=C2c3ccc(Cl)cc3CCc3cccnc32)CC1` [LORATADINE], the IC50 result (at D(3) dopamine receptor (cho); in test [1]; against Estrogen receptor beta; in test [2]; in test [3]; against Cathepsin G) was “Not Active” each time. Further, on Mu-type opioid receptor (cho-k1), the IC50 entry is “Not Active”. Further, the inhibitory constant (Ki) result in test [1] is recorded as “Not Active”.

In the case of `Cn1ccnc1S` [METHIMAZOLE], the half-maximal inhibitory concentration (IC50) entry (at D(3) dopamine receptor (cho); in test [1]; at Estrogen receptor beta; in test [2]; in test [3]; against Cathepsin G) was “Not Active” each time. For the same compound, the IC50 entry at Mu-type opioid receptor (cho-k1) is “Not Active”. For the same compound, the inhibition constant (Ki) entry in test [1] was “Not Active”.

For `CC[C@@H](CO)NC(=O)[C@@H]1C=C2c3cccc4[nH]cc(c34)C[C@H]2N(C)C1` [METHYLERGONOVINE], the half-maximal inhibitory concentration (IC50) was 167 nM at D(3) dopamine receptor (read-out: IC50); “Not Active” in test [1]; “Not Active” against Estrogen receptor beta; “Not Active” in test [2]; “Not Active” in test [3]; “Not Active” against Cathepsin G. For the same compound, the Ki on D(3) dopamine receptor (read-out: Ki) was 57 nM; in test [1], “Not Active”.

`COc1nc(C)nc(Cl)c1NC1=NCCN1` [MOXONIDINE]: the half-inhibitory concentration (IC50) result (on D(3) dopamine receptor (cho); in test [1]; at Estrogen receptor beta; in test [2]; in test [3]; against Cathepsin G) was “Not Active” throughout. The half-maximal inhibitory concentration (IC50) entry at Mu-type opioid receptor (cho-k1) was “Not Active”. Besides, in test [1], the inhibition constant (Ki) result is “Not Active”.

For the compound `COc1c(C)c2c(c(O)c1C/C=C(\C)CCC(=O)O)C(=O)OC2` [MYCOPHENOLIC ACID], the IC50 entry (at D(3) dopamine receptor (cho); in test [1]; at Estrogen receptor beta; in test [2]; in test [3]; on Cathepsin G) was “Not Active” throughout. For the same compound, at Mu-type opioid receptor (cho-k1), the IC50 result is “Not Active”. Moreover, the Ki entry in test [1] is given as “Not Active”.

With `CN1CCN(CCCN2c3ccccc3Sc3ccc(Cl)cc32)CC1` [PROCHLORPERAZINE], the concentration for half-maximal inhibition (IC50) entry (on Estrogen receptor beta; in test [3]; at Cathepsin G; at Mu-type opioid receptor (cho-k1)) was “Not Active” throughout.

For the compound `Cc1nc2n(c(=O)c1CCN1CCC(c3noc4cc(F)ccc34)CC1)CCCC2` [RISPERIDONE], the IC50 result (in test [3]; at Cathepsin G; at Mu-type opioid receptor (cho-k1)) was “Not Active” in each case.

`CC/C(=C(\c1ccccc1)c1ccc(OCCN(C)C)cc1)c1ccccc1` [TAMOXIFEN]: the IC50 at D(3) dopamine receptor (read-out: IC50) was 1070 nM; in test [3], “Not Active”; on Cathepsin G it was “Not Active”; at Mu-type opioid receptor (read-out: IC50), 17600 nM. Besides, the figures for the inhibition constant Ki on D(3) dopamine receptor (read-out: Ki) and at Mu-type opioid receptor were 364 nM and 7140 nM, respectively.

As for `CC(C)N1CCN(c2ccc(OCC3COC(Cn4cncn4)(c4ccc(Cl)cc4Cl)O3)cc2)CC1` (centres undefined) [TERCONAZOLE], the half-inhibitory concentration (IC50) on D(3) dopamine receptor (read-out: IC50) is 4710 nM; in test [1] it was “Not Active”; against Estrogen receptor beta, “Not Active”; in test [3] it was “Not Active”; against Cathepsin G, “Not Active”; at Mu-type opioid receptor (cho-k1), “Not Active”. Moreover, the Ki at D(3) dopamine receptor (read-out: Ki) is 1600 nM; in test [1], “Not Active”.

For the compound `CC[C@]1(O)C[C@H]2CN(CCc3c([nH]c4ccccc34)[C@@](C(=O)OC)(c3cc4c(cc3OC)N(C=O)[C@H]3[C@@](O)(C(=O)OC)[C@H](OC(C)=O)[C@]5(CC)C=CCN6CC[C@]43[C@@H]65)C2)C1` [VINCRISTINE], the half-inhibitory concentration (IC50) result (on D(3) dopamine receptor (cho); in test [1]; in test [2]; in test [3]; at Cathepsin G; at Mu-type opioid receptor (cho-k1)) was “Not Active” each time. Further, in test [1], the inhibitory constant (Ki) entry is “Not Active”.

For the compound SODIUM NITROPRUSSIDE, the IC50 result (at D(3) dopamine receptor (cho); in test [1]; on Estrogen receptor beta; in test [2]; in test [3]; against Cathepsin G) was “Not Active” each time. For the same compound, the inhibitory constant (Ki) entry (at D(3) dopamine receptor (cho); in test [1]; at Estrogen receptor beta; in test [2]; in test [3]; at Cathepsin G) was “Not Active” each time.
